One series concerns the target CYP79F1 (Arabidopsis thaliana, UniProt Q949U1, M2A). The note with it: E. coli C43(DE3) spheroplasts, GC-MS or TLC. The procedure:
In a typical enzyme assay, 5 μl spheroplasts and 4 μl NADPH:cytochrome P450 reductase (equivalent to 0.04 units defined as 1 μmol cytochrome c/min) are incubated with substrate in buffer containing 30 mM KPi, pH 7.5, 3 mM NADPH, 3 mM reduced glutathione, 0.042% Tween 80, 1 mg ml^−1 L-α-dilauroylphosphatidylcholine in a total volume of 30 μl. Reaction mixtures containing spheroplasts of E. coli C43(DE3) transformed with empty vector are used as controls in all assays. 3.3 μM L-[U-^14C]phenylalanine (453 mCi/mmol; Pharmacia), 3.7 μM L-[U-^14C]tyrosine (449 mCi/mmol; Pharmacia), 0.1 mM L-[methyl-^14C]methionine (56 mCi/mmol; Pharmacia), and 24 μM L-[side chain-3-^14C]tryptophan (56.5 mCi/mmol; NEN) are tested as potential substrates. After incubation at 28° C. for 1 hour, half of the reaction mixture is analyzed by TLC on Silica Gel 60 F254 sheets (Merck) using toluene/ethyl acetate 5:1 (v/v) as eluent. Radiolabelled bands are visualized and quantified using a STORM 840 phosphoimager (Pharmacia). For GC-MS analysis, 450 μl reaction mixture containing 3.3 mM L-methionine (Sigma), 3.3 mM DL-dihomomethionine or 3.3 mM DL-trihomomethionine, respectively, are incubated for 4 hours at 25° C. and extracted with a total volume of 600 μl CHCl3. The organic phase is collected, evaporated, and the residue is dissolved in 15 μl CHCl3 and analyzed by GC-MS. […] An SGE column (BPX5, 25 m×0.25 mm, 0.25 μm film thickness) is used (heat pressure 100 kPa, splitless injection). The oven temperature program is as follows: 80° C. for 3 minutes, 80° C. to 180° C. at 5° C. min^−1, 180° C. to 300° C. at 20° C. min^−1, and 300° C. for 10 min. The ion source is run in EI mode (70 eV) at 200° C. […] DL-dihomomethionine, DL-trihomomethionine, 5-methylthiopentanaldoxime and 6-methylthiohexanaldoxime are synthesized as described (Dawson et al, J. Biol. Chem. 268: 27154-27159, 1993) and authenticated by NMR spectroscopy.

A further series deals with CYP79E2. As to the kind of experiment: Substrate specificity / reconstitution of CYP79E2. The class given is biochemical, Triglochin maritima. The procedure: Investigations into the substrate specificity of CYP79D1, CYP79D2, CYP79E1, CYP79E2, CYP79A2, CYP79B2, CYP79B5 and CYP79F1 are carried out in E. coli spheroplasts reconstituted with sorghum NADPH-cytochrome P450 oxidoreductase in the presence of high amounts of lipids. L-α-dioleyl phosphatidyl choline and L-α-dilauroyl phosphatidyl choline are preferred lipids for the reconstitution. […] Neither L-methionine, L-tryptophane nor L-tyrosine are metabolized by CYP79A2. Neither phenylalanine nor tyrosine are metabolized by CYP79B2. Neither L-tryptophane, L-phenylalanine nor L-tyrosine are metabolized by CYP79F1. D-Amino acids are not converted into oximes by CYP79D1, CYP79D2, CYP79E1 and CYP79E2. Depending on the nature of the substrate, substrate specificity may also be determined using intact P. pastoris cells or intact E. coli cells.
Expression levels of the different constructs are determined by CO difference spectroscopy and quantified using an extinction coefficient ε450-490 of 91 mM^−1cm^−1 (Omura et al, J. Biol. Chem. 239: 2370-2378, 1964). Spectra are made from 100 μl or 500 μl whole E. coli cells or using the rich phases from Triton X-114 phase partitioning solubilized in 50 mM KH2PO4/K2HPO4 pH 7.5, 2 mM EDTA, 20% glycerol, 0.2% Triton X-100 (total volume: 1 ml). […] In vitro activities are measured in reconstitution experiments using the rich phase from phase partitioning. […]

This note sets out measurements from patent US20030166202A1, “P450 Monooxygenases of the cyp79 family” (priority 2000, published 2003).

CYP79F1, sequence (Q949U1 whole entry M2A): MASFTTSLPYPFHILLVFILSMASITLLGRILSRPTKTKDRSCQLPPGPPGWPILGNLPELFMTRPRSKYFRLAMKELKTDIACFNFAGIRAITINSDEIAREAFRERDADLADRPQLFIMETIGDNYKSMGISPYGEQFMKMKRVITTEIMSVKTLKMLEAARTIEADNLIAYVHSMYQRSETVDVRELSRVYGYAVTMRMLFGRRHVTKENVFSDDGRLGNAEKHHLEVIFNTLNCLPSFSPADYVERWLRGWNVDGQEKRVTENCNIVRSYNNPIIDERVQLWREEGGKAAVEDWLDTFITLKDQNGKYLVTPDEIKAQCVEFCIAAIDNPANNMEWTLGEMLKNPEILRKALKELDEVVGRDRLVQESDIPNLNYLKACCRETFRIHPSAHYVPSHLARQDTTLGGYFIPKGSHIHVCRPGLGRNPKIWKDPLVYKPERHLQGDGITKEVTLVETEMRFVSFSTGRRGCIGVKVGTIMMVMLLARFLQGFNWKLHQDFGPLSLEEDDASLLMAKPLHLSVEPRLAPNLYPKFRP

As to `N[C@@H](Cc1ccc(O)cc1)C(=O)O` [L-tyrosine], the “formation of the corresponding aldoxime by CYP79F1” value on CYP79F1 was “did not result in the formation of detectable amounts of the corresponding aldoximes”. Besides, in the series on CYP79E2, the “conversion to the corresponding oxime by CYP79E2” value is given as “found to convert”. The “product accumulation in reconstitution of CYP79E2 with CYP71E1” value in the series on CYP79E2 (with NADPH, NADPH-cytochrome P450 oxidoreductase, CYP71E1) was “considerable amounts of p-hydroxyphenylacetonitrile and p-hydroxybenzaidehyde accumulate”.
